Where two headings read alike, the source gives them in different places.
What was measured:
[1] = Kinetic test in intraperitoneal administration; type: in vivo, Mice; conditions: 30 mg/kg i.p.
Procedure: A specific procedure of the pharmacokinetics test is shown below. • (1) SN38-βGal (30 mg/kg) was dissolved in 100 µL of PBS and administered by i.p. • (2) 150 to 200 µL of anesthesia (in the case of a mixture of three types of Domitor + Betorphal + Mitazolam) was intraperitoneally administered 5 minutes before dissection at each time. • (3) The inside of a syringe was coated with sodium heparin, and at each evaluation time, the mouse was quickly stuck to the dissecting pad, and the abdomen was opened without bleeding, and whole blood was collected from the right ventricle with a 23 G needle. 100 µM β-Galactosidase inhibitor was added to whole blood. • (4) After whole blood collection, brain, heart, lung, liver, pancreas, spleen, kidney, stomach, small intestine, large intestine, muscle, and fat were taken out. As the muscle, a muscle near the thigh was resected. The weight of each organ was measured. • (5) Whole blood was centrifuged at 1200 G for 15 min at 4°C, and 200 µL of supernatant was collected. 800 µL of a solution of MeOH/MeCN = 1:1 (containing Rhodamine 123 = 25 µM as an internal standard) was added thereto, and the mixture was allowed to stand for 10 minutes. • (6) After standing, centrifugation was performed at 1700 G for 15 min at 4°C, and the supernatant was collected. About 80 µL of the mixture was fractionated, loaded on a Cosmo Spin Filter G (0.2 um), centrifuged at 12000 G for 5 min at 4°C, and filtered to collect a sample. • (7) Each resected organ was finely cut and put into a tube of Lysing Matrix D, 1000 µL of Lysis Buffer (added with 100 µM β-Galactosidase inhibitor) was added thereto, and the mixture was crushed with a shaker. • (8) The supernatant was collected from the tube of Lysing Matrix, and then centrifuged at 10,000 G for 5 min at 4°C to collect the supernatant to obtain a lysate solution. • (9) To 100 µL of the organ lysate solution, 200 µL of MeOH/MeCN = 1:1 (containing 30 µM of Rhodamine 123 as an internal standard) was added, and the mixture was allowed to stand for 10 minutes. • (10) Centrifugation was performed at 1700 G for 15min at 4°C to collect 200 µL of the supernatant. The supernatant was loaded on a Cosmo Spin Filter G (0.2 µm) and centrifuged at 12000 G for 5 min at 4°C to collect a sample. • (11) 50 µL of purified water and 50 µL of a filtered plasma sample or organ lysate sample were mixed, 10 µL of the mixture was injected into HPLC, and data of the area under the curve of the PDA spectrum at 380 nm (derived from SN 38) and 490 nm (derived from Rhodamine 123) were acquired, and then the respective numerical values were calculated from the volume for blood and the weight for organs by one inspection amount of Rhodamine 123.
A specific procedure of the intraperitoneal concentration evaluation test is shown below. • (1) Intraperitoneal administration (i.p.) was performed on an evaluation amount of the drug. • (2) 2.0 mL of PBS was administered by i.p. at each evaluation time, and the abdomen was immediately massaged and sacrificed so that the drug could be collected as much as possible on the PBS side after administration. A small hole was made in the abdomen, and PBS in the abdominal cavity was quickly collected with a 1.0 mL syringe in a pushing manner, and this solution was used as an peritoneal washing solution. • (3) To 200 µL of the collected peritoneal washing solution, 800 µL (containing Rhodamine 123 = 25 µM) of 800 µL MeCN/MeOH = 1:1 was added to precipitate proteins. The supernatant was collected by centrifugation at 1700 G for 5 min at 4°C. • (4) 80 µL of the recovered supernatant was loaded on a cosmo spin filter G and centrifuged at 12000 G for 5 min at 4°C, and 50 µL of purified water was added to 50 µL of the recovered material to adjust the total amount to 100 µL to prepare a sample. • (5) The concentration of SN38-βGal was measured by HPLC, and the concentration of the recovered peritoneal washing solution was calculated.

[2] = target: T1, Human β-Galactosidase 1 (GLB1) (Homo sapiens, UniProt P16278); assay: Evaluation of drug release using LC-MS; type: biochemical; conditions: GLB1 purified enzyme added
T1 sequence (P16278 29-677): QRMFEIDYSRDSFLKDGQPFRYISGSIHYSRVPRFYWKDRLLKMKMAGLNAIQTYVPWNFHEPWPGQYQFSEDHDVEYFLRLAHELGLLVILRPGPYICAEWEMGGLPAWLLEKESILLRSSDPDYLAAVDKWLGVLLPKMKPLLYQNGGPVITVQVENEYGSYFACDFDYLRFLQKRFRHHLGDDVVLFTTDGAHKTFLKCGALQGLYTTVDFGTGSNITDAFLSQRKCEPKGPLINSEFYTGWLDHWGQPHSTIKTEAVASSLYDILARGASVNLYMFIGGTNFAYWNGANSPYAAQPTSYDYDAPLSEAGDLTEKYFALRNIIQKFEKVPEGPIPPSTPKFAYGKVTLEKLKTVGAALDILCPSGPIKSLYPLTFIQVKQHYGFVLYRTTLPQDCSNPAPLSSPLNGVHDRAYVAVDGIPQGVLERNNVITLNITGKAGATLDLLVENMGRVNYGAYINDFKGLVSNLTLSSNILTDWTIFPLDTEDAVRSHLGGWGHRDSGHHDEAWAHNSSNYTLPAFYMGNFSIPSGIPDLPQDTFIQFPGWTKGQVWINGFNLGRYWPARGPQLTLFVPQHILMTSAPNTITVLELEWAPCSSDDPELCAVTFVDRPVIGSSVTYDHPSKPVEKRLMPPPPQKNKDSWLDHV
From the text: Reactivity with Human β-Galactosidase 1 (GLB1), which is an assumed target enzyme of SN38-βGal, was confirmed using LC-MS.

[3] = tested on: lung squamous carcinomas cell H226; assay: Tumor proliferation suppression test in H226 subcutaneous tumor model; type: in vivo, mice; conditions: 200 mg/kg i.v. 3 times a week for 2 weeks, n = 5, vs Vehicle
Procedure: 200 mg/kg of SN38-βGlcNAc was intravenously administered 3 times a week for 2 weeks to subcutaneous tumor model mice of lung squamous carcinomas cell H226, and the tumor proliferation suppression effect was evaluated. The Vehicle (DMSO administration) group and the SN38-βGlcNAc administration group were n = 5, respectively.
The drug SN38-βGlcNAc was prepared by dissolving a 200 mM of DMSO stock in PBS, and was intravenously administered from the tail vein 3 times a week for 2 weeks at a dose of 200 mg/kg with a total amount of 100 µL. • (3) The body weight was measured on the day of evaluation, and the tumor volume was evaluated with a vernier caliper. • (4) Tumors were resected on day 19 from the start of dosing and their sizes were compared.

CCc1c2c(nc3ccc(O[C@@H]4O[C@H](CO)[C@H](O)[C@H](O)[C@H]4O)cc13)-c1cc3c(c(=O)n1C2)COC(=O)[C@]3(O)CC [SN38-βGal]
time of highest blood concentration [1]: around 10 minutes | organ distribution ([1]; 10 minutes to 60 minutes after administration): the absorption from the small intestine was large, and only a slight distribution was confirmed in the brain | intraperitoneal concentration ([1]; at 30 minutes): about 17% | half-life ([1]; mouse, blood, ip, read-out: blood half-life): ~30 min | AUC(0-inf) ([1]; mouse, in vivo, ip): 15900 ng·h/mL | AUC(0-t) at 1 h ([1]; mouse, in vivo, ip, read-out: AUC0-1h): 15400 ng·h/mL | half-life ([1]; mouse, in vivo, ip, read-out: t1/2 (converted)): 11.8 min | release of SN38 [2]: the release of SN38 showing an anticancer effect was confirmed

CCc1c2c(nc3ccc(O[C@@H]4O[C@H](CO)[C@@H](O)[C@H](O)[C@H]4NC(C)=O)cc13)-c1cc3c(c(=O)n1C2)COC(=O)[C@]3(O)CC [SN38-βGlcNAc]
tumor proliferation suppression effect (tumor volume) [3]: the tumor growth was almost completely suppressed

Reference: patent EP4772520A1, “NOVEL PRODRUG-TYPE ANTICANCER AGENT TARGETING CANCER-SPECIFIC ENZYME ACTIVITY” (priority 2023, dated 2025)
